# Data as given in patent publication US20060199856A1, “Novel compounds as anti-inflammatory, immunomodulatory and anti-proliferatory agents” (4 SC AG, priority 2001, published 2006).
# Where two headings read alike, the source gives them in different places.
# How the values were obtained:
# Assay type in all cases: biochemical
# recombinant human DHODH = target: T1, recombinant human DHODH (Homo sapiens, UniProt Q02127); assay: Inhibition assay of DHODH activity (human enzyme)
# T1 construct: provided by Prof; M. Löffler, Marburg, Germany (gift, not purchased)
# T1 sequence (Q02127 whole entry): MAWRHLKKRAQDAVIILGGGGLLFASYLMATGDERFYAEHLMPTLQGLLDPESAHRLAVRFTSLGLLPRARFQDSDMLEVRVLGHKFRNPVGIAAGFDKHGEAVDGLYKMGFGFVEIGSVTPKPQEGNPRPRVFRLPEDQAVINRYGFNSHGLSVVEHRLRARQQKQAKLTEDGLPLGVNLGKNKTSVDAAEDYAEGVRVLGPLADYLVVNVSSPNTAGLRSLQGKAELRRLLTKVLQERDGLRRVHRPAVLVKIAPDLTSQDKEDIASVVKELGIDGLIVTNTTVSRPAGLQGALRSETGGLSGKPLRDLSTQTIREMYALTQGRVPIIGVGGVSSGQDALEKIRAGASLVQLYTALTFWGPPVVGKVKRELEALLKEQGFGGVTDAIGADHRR
# Description: (§1) The standard assay mixture contained 50 μM decyclo ubichinone, 100 μM dihydroorotate, 60 μM 2,6-dichloroindophenol, as well as 20 mU DHODH. The volume activity of the recombinant enzyme used was 30 U/ml. Measurements were conducted in 50 mM TrisHCl (150 mM KCl, 0,1% Triton X-100, pH. 8,0) at 30° C. in a final volume of 1 ml. The components were mixed, and the reaction was started by adding dihydroorotate. The course of reaction was followed by spectrophotometrically measuring the decrease in absorption at 600 nm for 2 min.
# (§2) Inhibitory studies were conducted in a standard assay with additional variable amounts of inhibitor.
# (§3) These investigations were carried out with recombinant human as well as with recombinant murine DHODH provided by Prof. M. Löffler, Marburg, Germany [M. Löffler, Chem. Biol. Interact.
# DHODH = DHODH (Rattus norvegicus, UniProt Q63707); assay: Inhibition assay of DHODH activity (rat enzyme, head printed 'rate')
# Chain of DHODH (Q63707 whole entry): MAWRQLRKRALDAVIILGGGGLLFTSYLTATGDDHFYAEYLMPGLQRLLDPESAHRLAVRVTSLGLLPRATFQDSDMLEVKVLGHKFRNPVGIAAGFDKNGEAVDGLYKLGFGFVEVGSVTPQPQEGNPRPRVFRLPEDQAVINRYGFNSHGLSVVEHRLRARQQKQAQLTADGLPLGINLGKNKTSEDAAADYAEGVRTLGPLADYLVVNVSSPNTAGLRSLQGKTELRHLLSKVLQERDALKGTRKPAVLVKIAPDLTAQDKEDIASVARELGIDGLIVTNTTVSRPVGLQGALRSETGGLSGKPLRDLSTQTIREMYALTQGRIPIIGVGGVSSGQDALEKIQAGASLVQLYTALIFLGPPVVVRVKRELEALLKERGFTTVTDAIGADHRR
# Description: as §1, §2
# recombinant murine DHODH = target: T2, recombinant murine DHODH (Mus musculus, UniProt O35435); assay: Inhibition assay of DHODH activity (murine enzyme); conditions: numeric values or words
# T2 construct: provided by Prof; M. Löffler, Marburg, Germany (gift, not purchased)
# T2 sequence (O35435 whole entry): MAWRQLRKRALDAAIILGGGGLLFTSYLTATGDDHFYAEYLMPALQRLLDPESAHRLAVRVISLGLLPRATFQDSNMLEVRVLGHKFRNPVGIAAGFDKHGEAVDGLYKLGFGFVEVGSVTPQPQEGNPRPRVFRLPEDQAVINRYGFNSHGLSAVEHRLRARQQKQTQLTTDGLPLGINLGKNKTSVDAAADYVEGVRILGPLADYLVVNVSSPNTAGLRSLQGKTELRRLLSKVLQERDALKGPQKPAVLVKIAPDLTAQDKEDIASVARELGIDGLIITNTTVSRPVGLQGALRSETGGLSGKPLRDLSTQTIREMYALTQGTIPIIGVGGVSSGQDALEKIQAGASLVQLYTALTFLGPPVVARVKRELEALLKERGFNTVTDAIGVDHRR
# Description: as §1, §2, §3
# [1] = recombinant human DHODH, class symbols (in nM), read-out: human IC50-Value
# [2] = class symbols (in nM), read-out: rate IC50-Value
# [3] = recombinant human DHODH, numeric values, read-out: human IC50-Value
Compound,IC50 (recombinant human DHODH; [1]) [nM],further results
COc1ccc(-c2ccc(NC(=O)C3=C(C(=O)O)CCC3)c(OC)c2)c(OC)c1 [Compound 37],< 800,–
COc1ccc(-c2ccc(NC(=O)C3=C(C(=O)O)CCC3)cc2Cl)cc1 [Compound 19],< 800,IC50 (DHODH; [2]): < 800 nM
COc1ccccc1-c1ccc(NC(=O)C2=C(C(=O)O)CCC2)c(Cl)c1 [Compound 53],< 800,IC50 (DHODH; [2]): 800 to 1500 nM
COc1ccccc1-c1ccc(NC(=O)C2=C(C(=O)O)CCC2)c([N+](=O)[O-])c1 [Compound 32],< 800,–
CCOc1cccc(-c2ccc(NC(=O)C3=C(C(=O)O)CCC3)c(OC)c2)c1 [Compound 38],< 800,–
O=C(O)C1=C(C(=O)Oc2ccc(-c3ccccc3)cc2)CCC1 [Compound 75],> 1500,–
CCOc1ccccc1-c1cc(F)c(NC(=O)C2=C(C(=O)O)CCC2)c(F)c1 [Compound 62],< 800,IC50 (DHODH; [2]): < 800 nM
O=C(O)C1=C(C(=O)Nc2ccc(-c3ccccc3)cc2)CS(=O)(=O)C1 [Compound 49],> 1500,–
O=C(O)C1=C(C(=O)Nc2ccc(-c3ccccc3F)cc2)CCC1 [Compound 13],< 800,IC50 (DHODH; [2]): > 1500 nM
O=C(O)C1=C(C(=O)Nc2cccc(C(F)(F)F)c2)CCC1 [Compound 09],–,IC50 (recombinant murine DHODH): 55000 nM; IC50 (recombinant human DHODH; [3]): 6800 nM
O=C(O)C1=C(C(=O)Nc2c(F)c(F)cc(F)c2F)CCC1 [Compound 06],–,IC50 (recombinant human DHODH; [3]): 1300 nM
O=C(O)C1=C(C(=O)Nc2c(F)cc(-c3ccccc3Cl)cc2F)CCC1 [Compound 65],< 800,–
COc1ccc(-c2ccc(NC(=O)C3=C(C(=O)O)CCC3)cc2C)cc1 [Compound 23],< 800,–
N#Cc1ccc(-c2ccc(NC(=O)C3=C(C(=O)O)CCC3)cc2Cl)cc1 [Compound 21],800 to 1500,–
CN(C(=O)C1=C(C(=O)O)CCC1)c1ccc(-c2ccccc2)cc1 [Compound 73],> 1500,–
O=C(O)C1=C(C(=O)Nc2cc(Br)c(OCc3cc(F)ccc3F)c(Br)c2)CCC1 [Compound 24],< 800,IC50 (DHODH; [2]): > 1500 nM
CCOc1ccccc1-c1ccc(NC(=O)C2=C(C(=O)O)CCC2)c(F)c1 [Compound 17],< 800,–
O=C(O)C1=C(C(=O)Nc2ccc(-c3cccnc3)c(Cl)c2)CCC1 [Compound 28],800 to 1500,–
Cc1cccc(Sc2ccc(NC(=O)C3=C(C(=O)O)CCC3)cc2)c1 [Compound 42],< 800,IC50 (DHODH; [2]): < 800 nM
N#Cc1cccc(-c2ccc(NC(=O)C3=C(C(=O)O)CCC3)cc2Cl)c1 [Compound 18],< 800,–
O=C(O)C1=C(C(=O)Nc2ccc(-c3cccc(F)c3)cc2F)CCC1 [Compound 27],< 800,–
O=C(O)C1=C(C(=O)Nc2ccc(Oc3ccccc3)cc2)CCC1 [Compound 50],< 800,IC50 (DHODH; [2]): < 800 nM

Compound,IC50 (recombinant human DHODH; [1]) [nM],further results
O=C(O)C1=C(C(=O)Nc2ccc(F)c(F)c2F)CCC1 [Compound 10],–,IC50 (recombinant human DHODH; [3]): 6800 nM
Cc1cc(-c2cc(F)c(NC(=O)C3=C(C(=O)O)CCC3)c(F)c2)ccc1F [Compound 30],< 800,–
COc1cc(-c2ccccc2F)ccc1NC(=O)C1=C(C(=O)O)CCC1 [Compound 36],< 800,–
COc1cc(-c2ccccc2)ccc1NC(=O)C1=C(C(=O)O)CCC1 [Compound 33],< 800,–
COc1cc(-c2ccc(NC(=O)C3=C(C(=O)O)CCC3)c(OC)c2)ccc1NC(=O)C1=C(C(=O)O)CCC1 [Compound 48],> 1500,–
O=C(O)C1=C(C(=O)Nc2ccc(OCc3ccccc3C(F)(F)F)c(Cl)c2)CCC1 [Compound 68],< 800,IC50 (DHODH; [2]): > 1500 nM
O=C(O)C1=C(C(=O)Nc2cc(Br)c(OCc3ccccc3)c(Br)c2)CSC1 [Compound 29],–,IC50 (DHODH): 800 to 1500 nM; IC50 (recombinant human DHODH): < 800 nM
O=C(O)C1=C(C(=O)NCCCCc2ccccc2)CCC1 [Compound 70],> 1500,–
COc1ccccc1-c1ccc(NC(=O)C2=C(C(=O)O)CCC2)c(C)c1 [Compound 57],< 800,IC50 (DHODH; [2]): 800 to 1500 nM
O=C(O)C1=C(C(=O)Nc2ccc3c(c2)S(=O)(=O)c2cc(NC(=O)C4=C(C(=O)O)CCC4)ccc2C3)CCC1 [Compound 05],–,murine IC50-Value (recombinant murine DHODH): weakley active; IC50 (recombinant human DHODH; [3]): 1100 nM
COc1ccc(Nc2ccc(NC(=O)C3=C(C(=O)O)CCC3)cc2)cc1 [Compound 04],–,murine IC50-Value (recombinant murine DHODH): weakly active; IC50 (recombinant human DHODH; [3]): 1000 nM
COc1ccc(-c2cc(F)c(NC(=O)C3=C(C(=O)O)CCC3)c(F)c2)c(OC)c1 [Compound 67],< 800,–
O=C(O)C1=C(C(=O)Nc2ccc(-c3cc4ccccc4s3)cc2F)CCC1 [Compound 45],< 800,–
COc1ccccc1-c1ccc(NC(=O)C2=C(C(=O)O)CCC2)c(C(F)(F)F)c1 [Compound 55],> 1500,–
COc1cc(-c2ccccc2Cl)ccc1NC(=O)C1=C(C(=O)O)CCC1 [Compound 34],< 800,–
O=C(O)C1=C(C(=O)Nc2c(F)cc(-c3ccccc3F)cc2F)CCC1 [Compound 66],< 800,–
O=C(O)C1=C(C(=O)Nc2ccc(OCc3ccccc3)c(Cl)c2)CCC1 [Compound 72],< 800,–
O=C(O)C1=C(C(=O)Nc2ccc(Oc3ccc(Cl)cc3)cc2)CCC1 [Compound 61],> 1500,–
CCOc1cccc(-c2cc(F)c(NC(=O)C3=C(C(=O)O)CCC3)c(F)c2)c1 [Compound 63],< 800,IC50 (DHODH; [2]): < 800 nM
O=C(O)C1=C(C(=O)NC2CC2c2ccccc2)CCC1 (stereo not shown) [Compound 71],> 1500,–
O=C(O)C1=C(C(=O)Nc2ccc(-c3ccccc3Cl)cc2)CCC1 [Compound 14],< 800,IC50 (DHODH; [2]): > 1500 nM
O=C(O)C1=C(C(=O)Nc2ccc(OCc3ccccc3F)c(Cl)c2)CCC1 [Compound 74],< 800,–

Compound,IC50 (recombinant human DHODH; [1]) [nM],further results
Nc1ccc(Oc2ccc(NC(=O)C3=C(C(=O)O)CCCC3)cc2)cc1 [Compound 11],–,IC50 (recombinant human DHODH; [3]): 7000 nM
O=C(O)C1=C(C(=O)Nc2c(F)c(F)c(C(F)(F)F)c(F)c2F)CCC1 [Compound 07],–,IC50 (recombinant human DHODH; [3]): 1600 nM
O=C(O)C1=C(C(=O)Nc2ccc(Oc3ccc(F)cc3F)cc2)CCC1 [Compound 60],800 to 1500,–
O=C(O)C1=C(C(=O)Nc2ccc(OCc3c(F)cccc3F)cc2)CCC1 [Compound 16],< 800,–
CCOc1cccc(-c2ccc(NC(=O)C3=C(C(=O)O)CCC3)c(F)c2)c1 [Compound 46],< 800,IC50 (DHODH; [2]): > 1500 nM
COc1ccccc1-c1cc(Cl)c(NC(=O)C2=C(C(=O)O)CCC2)c(Cl)c1 [Compound 58],< 800,IC50 (DHODH; [2]): 800 to 1500 nM
CS(=O)(=O)c1ccc(-c2ccc(NC(=O)C3=C(C(=O)O)CCC3)cc2Cl)cc1 [Compound 20],800 to 1500,–
O=C(O)C1=C(C(=O)Nc2cc(C(F)(F)F)cc(C(F)(F)F)c2)CCC1 [Compound 03],–,IC50 (recombinant human DHODH; [3]): 1000 nM
O=C(O)C1=C(C(=O)Nc2ccc(Oc3ccccc3)cc2)COC1 [Compound 51],> 1500,–
COc1ccc(Oc2ccc(C(F)(F)F)cc2NC(=O)C2=C(C(=O)O)CCC2)cc1 [Compound 59],> 1500,–
COc1ccccc1-c1c(F)c(F)c(NC(=O)C2=C(C(=O)O)CCC2)c(F)c1F [Compound 56],–,IC50 (DHODH): < 800 nM; IC50 (recombinant human DHODH): < 800 nM
O=C(O)C1=C(C(=O)Nc2ccc(-c3cc4ccccc4s3)cc2)CCC1 [Compound 44],< 800,–
O=C(O)C1=C(C(=O)Nc2ccc(-c3cccc(OC(F)(F)F)c3)cc2)CCC1 [Compound 43],< 800,–
O=C(O)C1=C(C(=O)Nc2c(F)cc(-c3cccc(OC(F)(F)F)c3)cc2F)CCC1 [Compound 64],< 800,–
COc1cc(-c2cccc(OC(F)(F)F)c2)ccc1NC(=O)C1=C(C(=O)O)CCC1 [Compound 35],< 800,–
COc1ccc(-c2ccc(NC(=O)C3=C(C(=O)O)CCC3)cc2Cl)cn1 [Compound 22],< 800,–
COc1cccc(-c2ccc(NC(=O)C3=C(C(=O)O)CCC3)c(F)c2)c1 [Compound 26],–,IC50 (DHODH): > 1500 nM
COc1ccccc1-c1ccc(NC(=O)C2=C(C(=O)O)CCC2)cc1Cl [Compound 54],< 800,IC50 (DHODH; [2]): < 800 nM
COc1ccccc1-c1ccc(NC(=O)C2=C(C(=O)O)CCC2)cc1 [Compound 15],< 800,–
COc1cccc(-c2ccc(NC(=O)C3=C(C(=O)O)CCC3)c(OC)c2)c1 [Compound 39],< 800,–
O=C(O)C1=C(C(=O)Nc2ccc(-c3ccccc3Cl)cc2)CSC1 [Compound 41],< 800,IC50 (DHODH; [2]): > 1500 nM
